The nature of data set [1]: Flammability / flash point (ASTM D3828, NFPA 30). In kind it is physicochemical. As to the method:
The flash pint of a thermal management fluid refers the lowest temperature at which vapors of the liquid will keep burning after the ignition source is removed as determined in accordance with ASTM D3828.
“Non-flammable” in the context of a thermal management composition or fluid means compounds or compositions which are determined to be non-flammable. The flash point of a thermal management composition or fluid refers the lowest temperature at which vapors of the composition will keep burning after the ignition source is removed as determined in accordance with ASTM D3828.

Data set [2] is described as follows: Acute inhalation toxicity (OECD Guideline No. 403). The class given is in vivo. As to conditions: statement in words. An excerpt:
LC50 is a measure of the acute toxicity of a compound. The acute inhalation toxicity of a compound can be assessed using the method described in the OECD Guideline for Testing of Chemicals No. 403 “Acute Inhalation Toxicity” (2009), Method B.2. (Inhalation) of Commission Regulation (EC) No. 440/2008.

Data set [3] in a line: Electrical conductivity (ASTM D 2624). The class given is physicochemical. To be noted: at 22° C. On the procedure:
(§1) Applicants have unexpectedly discovered that TFMCB not only meets the challenging performance requirements for high temperature heat transfer applications and for electronic cooling but also satisfies exacting environmental and safety requirements. […] In particular, applicants have determined that TFMCB has a measured dielectric constant of 20 at 22° C. as determined by ASTM D2477-07 and has a measured electrical conductivity of less than 10 nS/cm at 22° C. as determined by ASTM D 2624.

Data set [4] in a line: Dielectric constant (ASTM D2477-07). In kind it is physicochemical. As to conditions: at 22° C. On the procedure:
as §1

SMILES strings stand for the structures.

`FC(F)(F)C1(F)CCC1(F)F` (centres unmarked) [TFMCB, 1-trifluoromethyl-1,2,2-trifluorocyclobutane]: in data set [1], the flammability entry was “non-flammable”. Further, in data set [1] (ASTM D3828), the flash point entry is listed as “no flash point below 100° F”. Also, the toxicity result in data set [2] is on record as “low levels of toxicity”. Moreover, the electrical conductivity entry in data set [3] is “less than 10 nS/cm”. Besides, the dielectric constant in data set [4] is 20.
